Assays:
[1] = tested on: three-dimensional hepatic tissue consisting only of human hepatocytes (PXB cells); assay: ATP assay (CellTiter Glo 3D) viability after exposure to hepatotoxicity-inducing compounds, Test Example 6 Condition 1; type: cell-based; settings: Hepatocyte, calculated from cell viability (ATP), exposure 168 hours from day 8 of culture, no bile acids, read-out: IC50 Condition 1 (present tissue)
Method: The resulting mixture was centrifuged at room temperature at 400×g for 2 minutes, the supernatant was removed, and the cells were resuspended in an HCM (product number “CC-3198”, manufactured by Lonza) containing 10 U/mL thrombin (product number “R4648”, manufactured by Sigma-Aldrich) and 1 v/v % endothelial cell growth supplement (ECGS) (product number “1052”, manufactured by Sciencell) to a cell density of 1.95×10^4 cells/2 μL to obtain a cell suspension.
2 μL of an HCM containing 5 mg/mL fibrinogen and 1 v/v % ECGS was added to a 48-well microplate (product number “3830-048”, manufactured by AGC Techno Glass) to form a droplet. The cell suspension was added to the interior of each droplet, and the 48-well microplate was then left to stand in an incubator for 40 minutes to form a fibrin gel in which the human hepatocytes were embedded. 0.5 mL of HCM containing 1 v/v % ECGS was added to each well in which the fibrin gel had been formed, and the cells were cultured under the conditions of 37° C. and 5% CO2. After the start of the culture, the medium was changed every two days.

[2] = tested on: spheroids consisting only of human hepatocytes (PXB cells); assay: ATP assay (CellTiter Glo 3D) viability after exposure to hepatotoxicity-inducing compounds, Test Example 6 Condition 2; type: cell-based; settings: calculated from cell viability (ATP), hepatocyte spheroids, exposure 168 hours, no bile acids, read-out: IC50 Condition 2 (spheroid)

Compound	IC50 [1]	IC50 [2]
CC(C)C(=O)Nc1ccc([N+](=O)[O-])c(C(F)(F)F)c1 [Flutamide]	63.9 µM	178 µM
O=C(O)Cc1ccccc1Nc1c(Cl)cccc1Cl [Diclofenac]	337 µM	297 µM
CC(=O)N1CCN(c2ccc(OCC3COC(Cn4ccnc4)(c4ccc(Cl)cc4Cl)O3)cc2)CC1 (centres unmarked) [Ketoconazole]	80.7 µM	79.5 µM
CS(=O)(=O)Nc1ccc([N+](=O)[O-])cc1Oc1ccccc1 [Nimesulide]	323 µM	683 µM
Cc1c(C)c2c(c(C)c1O)CCC(C)(COc1ccc(CC3SC(=O)NC3=O)cc1)O2 (centres unmarked) [Troglitazone]	92.9 µM	202 µM
Cc1ccc(C(=O)c2cc(O)c(O)c([N+](=O)[O-])c2)cc1 [Tolcapone]	132 µM	92.4 µM
NC(=O)N1c2ccccc2C=Cc2ccccc21 [Carbamazepine]	843 µM	978 µM
CCc1nn(CCCN2CCN(c3cccc(Cl)c3)CC2)c(=O)n1CCOc1ccccc1 [Nefazodone]	39.9 µM	46.5 µM
CN(C)CCCN1c2ccccc2Sc2ccc(Cl)cc21 [Chlorpromazine]	26.6 µM	25 µM
CS(=O)(=O)CCNCc1ccc(-c2ccc3ncnc(Nc4ccc(OCc5cccc(F)c5)c(Cl)c4)c3c2)o1 [Lapatinib]	8.4 µM	27.3 µM
CCc1oc2ccccc2c1C(=O)c1cc(Br)c(O)c(Br)c1 [Benzbromarone]	249 µM	256 µM
CC(=O)Nc1ccc(O)cc1 [Acetaminophen]	5510 µM	4670 µM
C1CCC(C(CC2CCCCN2)C2CCCCC2)CC1 (centres unmarked) [Perhexiline]	3.6 µM	5.6 µM

Reference: patent US20250368962A1, “THREE-DIMENSIONAL HEPATIC TISSUE AND METHOD OF MANUFACTURING THE SAME” (TOPPAN HOLDINGS INC., priority 2023, published 2025)
